Measured values as given in US7223888B2, “Mu opioid receptor ligands: methods of use and synthesis” (President and Fellows of Harvard College, priority 2002, dated 2007).
Where two headings read alike, the source gives them in different places.

What was measured:
[1] = molecular target: T1, hMOR-1 (Homo sapiens, UniProt P35372); test: Opioid receptor competitive binding assay, MOR (3H-DAMGO)
T1 construct: purchased Amersham Biosciences; host or cells: stably transfected CHO cells (membrane preparation)
Method: (§1) For selected compounds, Ki for MOR, DOR, and KOR were determined according to the following procedure: Recombinant hMOR-1 membrane preps from stably transfected CHO cells and recombinant hDOR-1 membrane preps from stably transfected HEK-293 cells were purchased from Amersham Biosciences. Guinea pig cerebellum preparations were used for KOR assays.
(§2) Each microassay from an assay plate was filtered through an individual well of a Packard GF/B 96-well filter plate (glass fiber filter) to collect the membranes. Each well was washed twice with 200 μL of ice cold wash buffer (50 mM Tris, pH 7.4). The filter plate was allowed to dry overnight, the back was sealed, and Packard Bioscience Microscint PS scintillation fluid (75 μL) was added to each well, which was then counted for ^3H for 2 minutes using a Packard Bioscience TopCount scintillation counter plate reader.
(§3) Each compound was assayed at 8 concentrations, using half-log serial dilutions. Each concentration was tested in triplicate, and the ^3H cpm were averaged.
(§4) This concentration was determined experimentally by scintillation counting an aliquot of the radioligand stock solution used in the assay.
(§5) Kd=the binding constant for the radioligand.
(§6) This triplicate experiment was repeated three times for the MOR and twice for the DOR and the KOR.

[2] = molecular target: T2, hDOR-1 (Homo sapiens, UniProt P41143); test: Opioid receptor competitive binding assay, DOR; details: for Ki DOR/Ki MOR: Table 12, selectivity for MOR versus DOR (3H-DPDPE, hDOR-1)
T2 construct: purchased Amersham Biosciences; host or cells: stably transfected HEK-293 cells (membrane preparation)
Method: as §1, §2, §3, §4, §5, §6

[3] = molecular target: T3, KOR (Cavia porcellus, UniProt P41144); test: Opioid receptor competitive binding assay, KOR (3H-U-69,593); set-up: species or system guinea pig; details: for Ki KOR/Ki MOR: Table 12, selectivity for MOR versus KOR
T3 construct: from tissue; host or cells: guinea pig cerebellum preparation
Method: as §1, §2, §3, §6

[4] = Ki MOR, Table 3, 3H-DAMGO, hMOR-1 stably transfected into CHO cells, errors 95% confidence interval
[5] = Ki DOR, Table 6, footnote:, hDOR-1 stably transfected into HEK-293 cells, errors two standard deviations
[6] = Ki KOR, Table 9, 3H-U-69,593, guinea pig cerebellum preps, errors two standard deviations

`NC(=O)C(Cc1ccccc1)NC(=O)C(Cc1ccccc1)C(O)/C=C/CC(O)C(N)Cc1ccc(O)cc1` (single isomer, unassigned) [(S,R,R,R)-2, (E)-8-Amino-2-benzyl-3,7-dihydroxy-9-(4-hydroxy-phenyl)-non-4-enoic acid (1-carbamoyl-2-phenyl-ethyl)-amide] was tested, and the Ki [1, 4] was 0.067 ± 0.038 µM, the Ki [2, 5] was 1.4 ± 0.3 µM and the “Ki DOR/Ki MOR” value [2] was 21. For the same compound, the Ki [3, 6] was 1.2 ± 0.1 µM and the “Ki KOR/Ki MOR” value [3] was 18.

`NC(=O)C(Cc1ccccc1)NC(=O)C(Cc1ccccc1)C(O)CCCC(O)C(N)Cc1ccc(O)cc1` (single isomer, unassigned) [(S,R,R,R)-6, 8-Amino-2-benzyl-3,7-dihydroxy-9-(4-hydroxy-phenyl)-nonanoic acid (1-carbamoyl-2-phenyl-ethyl)-amide] gave a Ki ([1]; read-out: Ki MOR) of 0.12 ± 0.03 µM and a Ki ([3]; read-out: Ki KOR) of 1.5 ± 0.7 µM.

With `NC(=O)C(Cc1ccccc1)NC(=O)C(Cc1ccccc1)C(O)/C=C\CC(O)C(N)Cc1ccc(O)cc1` (single isomer, unassigned) [(S,R,R,R)-9, (Z)-8-Amino-2-benzyl-3,7-dihydroxy-9-(4-hydroxy-phenyl)-non-4-enoic acid (1-carbamoyl-2-phenyl-ethyl)-amide] the Ki [1, 4] was 0.4 ± 0.11 µM, the Ki [2, 5] was 9.2 ± 2.1 µM and the “Ki DOR/Ki MOR” value [2] was 23. For the same compound, the Ki [3, 6] was 5.8 ± 1.8 µM and the “Ki KOR/Ki MOR” value [3] was 15.

`NC(Cc1ccc(O)cc1)C(O)C/C=C/C(O)C(Cc1ccccc1)C(=O)NCCc1ccccc1` (single isomer, unassigned) [(S,R,R,R)-10, (E)-8-Amino-2-benzyl-3,7-dihydroxy-9-(4-hydroxy-phenyl)-non-4-enoic acid phenethyl-amide] was tested, and the Ki [1, 4] was 0.053 ± 0.006 µM, the Ki [2, 5] was 2.9 ± 0.6 µM and the “Ki DOR/Ki MOR” value [2] was 55. The Ki [3, 6] was 2.8 ± 0.6 µM and the “Ki KOR/Ki MOR” value [3] was 53.

`NC(Cc1ccc(O)cc1)C(O)C/C=C/C(O)C(Cc1ccccc1)C(=O)NC(CO)Cc1ccccc1` (single isomer, unassigned) [(S,R,R,R)-11, (E)-8-Amino-2-benzyl-3,7-dihydroxy-9-(4-hydroxy-phenyl)-non-4-enoic acid (1-hydroxymethyl-2-phenyl-ethyl)-amide] was tested, and the Ki [1, 4] was 0.028 ± 0.005 µM, the Ki [2, 5] was 0.96 ± 0.1 µM and the “Ki DOR/Ki MOR” value [2] was 34. The Ki [3, 6] was 3.4 ± 1.3 µM and the “Ki KOR/Ki MOR” value [3] was 120.

`C=CC(O)C(Cc1ccccc1)NC(=O)C(Cc1ccccc1)C(O)/C=C/CC(O)C(N)Cc1ccc(O)cc1` (single isomer, unassigned) [(S,R,R,R)-12, (E)-8-Amino-2-benzyl-3,7-dihydroxy-9-(4-hydroxy-phenyl)-non-4-enoic acid (1-benzyl-2-hydroxy-but-3-enyl)-amide] was tested, and the Ki [1, 4] was 0.037 ± 0.001 µM, the Ki [2, 5] was 0.57 ± 0.28 µM and the “Ki DOR/Ki MOR” value [2] was 15. The Ki [3, 6] was 0.97 ± 0.08 µM and the “Ki KOR/Ki MOR” value [3] was 26.

For `NC(=O)C(Cc1ccccc1)NC(=O)C(Cc1ccccc1)C(O)/C=C/CC(O)C(N)Cc1ccc(O)cc1` (single isomer, unassigned) [(S,R,S,R)-2, (E)-8-Amino-2-benzyl-3,7-dihydroxy-9-(4-hydroxy-phenyl)-non-4-enoic acid (1-carbamoyl-2-phenyl-ethyl)-amide], the Ki [1, 4] was 0.16 ± 0.04 µM, the Ki [2, 5] was 0.85 ± 0.03 µM and the “Ki DOR/Ki MOR” value [2] was 5. The Ki [3, 6] was 2.9 ± 0.8 µM and the “Ki KOR/Ki MOR” value [3] was 18.

`NC(=O)C(Cc1ccccc1)NC(=O)C(Cc1ccccc1)C(O)CCCC(O)C(N)Cc1ccc(O)cc1` (single isomer, unassigned) [(S,R,S,R)-6, 8-Amino-2-benzyl-3,7-dihydroxy-9-(4-hydroxy-phenyl)-nonanoic acid (1-carbamoyl-2-phenyl-ethyl)-amide] showed a Ki ([1]; read-out: Ki MOR) of 0.19 ± 0.02 µM, a Ki ([2]; read-out: Ki DOR) of 4 ± 0.1 µM and a Ki ([3]; read-out: Ki KOR) of 6.6 ± 3.5 µM.

Compound `NC(=O)C(Cc1ccccc1)NC(=O)C(Cc1ccccc1)C(O)CCCC(O)C(N)Cc1ccc(O)cc1` (single isomer, unassigned) [(S,S,S,R)-6, 8-Amino-2-benzyl-3,7-dihydroxy-9-(4-hydroxy-phenyl)-nonanoic acid (1-carbamoyl-2-phenyl-ethyl)-amide] has a Ki [1, 4] of 0.098 ± 0.031 µM and a Ki ([3]; read-out: Ki KOR) of 3.9 ± 1.7 µM.
